Assay results taken from patent publication US20230000869A1, “NOVEL ALK2 INHIBITORS AND METHODS FOR INHIBITING BMP SIGNALING” (The Brigham and Women's Hospital, Inc., priority 2017, published 2023).

Experiments:
BMPR2 = target: T1, BMPR2 (Homo sapiens, UniProt Q13873); test: LanthaScreen Eu kinase binding assay, BMP type II receptor BMPR2; conditions: 10-point titration from 10 μM, 3-fold serial dilution, Life Technologies
T1 sequence (Q13873 27-1038): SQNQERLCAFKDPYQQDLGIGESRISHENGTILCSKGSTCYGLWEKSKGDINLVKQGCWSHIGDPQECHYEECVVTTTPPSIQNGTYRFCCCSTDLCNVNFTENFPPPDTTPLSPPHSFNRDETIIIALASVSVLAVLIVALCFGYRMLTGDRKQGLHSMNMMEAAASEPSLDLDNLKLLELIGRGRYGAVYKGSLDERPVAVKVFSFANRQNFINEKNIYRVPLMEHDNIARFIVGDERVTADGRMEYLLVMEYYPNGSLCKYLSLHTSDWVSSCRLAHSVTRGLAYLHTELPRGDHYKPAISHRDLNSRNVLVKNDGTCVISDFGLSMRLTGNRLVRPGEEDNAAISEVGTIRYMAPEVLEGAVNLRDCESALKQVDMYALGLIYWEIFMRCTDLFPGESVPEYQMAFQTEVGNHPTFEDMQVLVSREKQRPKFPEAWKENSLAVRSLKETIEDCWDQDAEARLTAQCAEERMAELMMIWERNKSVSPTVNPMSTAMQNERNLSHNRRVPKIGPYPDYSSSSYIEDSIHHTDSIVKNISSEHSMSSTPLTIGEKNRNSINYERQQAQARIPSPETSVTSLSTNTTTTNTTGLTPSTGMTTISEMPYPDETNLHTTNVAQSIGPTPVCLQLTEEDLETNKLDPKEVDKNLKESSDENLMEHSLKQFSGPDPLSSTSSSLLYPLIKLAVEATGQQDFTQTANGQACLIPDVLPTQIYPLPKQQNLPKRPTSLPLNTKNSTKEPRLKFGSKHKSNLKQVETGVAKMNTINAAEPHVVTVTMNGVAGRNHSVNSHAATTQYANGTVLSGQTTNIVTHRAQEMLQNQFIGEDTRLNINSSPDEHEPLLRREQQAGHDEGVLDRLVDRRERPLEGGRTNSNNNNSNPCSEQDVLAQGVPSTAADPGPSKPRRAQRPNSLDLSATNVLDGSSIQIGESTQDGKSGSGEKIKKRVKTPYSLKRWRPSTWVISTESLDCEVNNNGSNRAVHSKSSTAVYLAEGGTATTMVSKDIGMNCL
Protocol: (§1) Kinase Profiling BMP Type II Receptor Experimental Procedure (Life Technologies, 5225 Vernona Road, Madison, Wis. 53744)
(§2) The measurement of each compound's half maximal inhibitory concentration (IC50) for BMP type II receptors (ACVR2A, ACVR2B, BMPR2 and TGFbR2) was carried out at Life Technologies by using its 10-point titration (starting concentration: 10 μM with 3-fold serial dilution) LanthaScreen™ biochemical kinase assay protocol. For the detailed description of LanthaScreen™ Eu kinase binding assay condition, please see: https://www.thermofisher.com/us/en/home/industrial/pharma-biopharma/drug-discovery-development/target-and-lead-identification-and-validation/kinasebiology/kinase-activity-assays/lanthascreentm-eu-kinas e-binding-assay/lanthascreen-eu-kinase-binding-assay-validation-table.html.

TGFβR2 = TGFβR2 (Homo sapiens, UniProt P37173); test: LanthaScreen Eu kinase binding assay, BMP type II receptor TGFbR2; conditions: 10-point titration from 10 μM, 3-fold serial dilution, Life Technologies
TGFβR2, sequence (P37173 23-567): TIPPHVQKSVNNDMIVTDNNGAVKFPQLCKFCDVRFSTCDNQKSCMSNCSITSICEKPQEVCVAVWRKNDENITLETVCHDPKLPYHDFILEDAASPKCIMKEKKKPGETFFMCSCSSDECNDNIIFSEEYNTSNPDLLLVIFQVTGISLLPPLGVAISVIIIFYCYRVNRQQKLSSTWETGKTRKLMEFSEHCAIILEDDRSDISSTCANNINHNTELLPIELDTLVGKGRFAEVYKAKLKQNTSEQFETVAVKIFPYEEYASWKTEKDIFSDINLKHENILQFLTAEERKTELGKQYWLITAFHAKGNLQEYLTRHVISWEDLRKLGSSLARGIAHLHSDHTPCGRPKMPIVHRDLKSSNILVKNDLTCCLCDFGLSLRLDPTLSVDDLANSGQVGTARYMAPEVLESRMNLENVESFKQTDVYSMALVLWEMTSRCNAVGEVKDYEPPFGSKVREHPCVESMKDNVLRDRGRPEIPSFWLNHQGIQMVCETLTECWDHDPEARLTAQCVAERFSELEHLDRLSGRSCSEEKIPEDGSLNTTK
Description: For the detailed description of LanthaScreen™ Eu kinase binding assay condition, please see: https://www.thermofisher.com/us/en/home/industrial/pharma-biopharma/drug-discovery-development/target-and-lead-identification-and-validation/kinasebiology/kinase-activity-assays/lanthascreentm-eu-kinas e-binding-assay/lanthascreen-eu-kinase-binding-assay-validation-table.html.

ACVR2B = ACVR2B (Homo sapiens, UniProt Q13705); test: LanthaScreen Eu kinase binding assay, BMP type II receptor ACVR2B; conditions: 10-point titration from 10 μM, 3-fold serial dilution, Life Technologies
ACVR2B, sequence (Q13705 19-512): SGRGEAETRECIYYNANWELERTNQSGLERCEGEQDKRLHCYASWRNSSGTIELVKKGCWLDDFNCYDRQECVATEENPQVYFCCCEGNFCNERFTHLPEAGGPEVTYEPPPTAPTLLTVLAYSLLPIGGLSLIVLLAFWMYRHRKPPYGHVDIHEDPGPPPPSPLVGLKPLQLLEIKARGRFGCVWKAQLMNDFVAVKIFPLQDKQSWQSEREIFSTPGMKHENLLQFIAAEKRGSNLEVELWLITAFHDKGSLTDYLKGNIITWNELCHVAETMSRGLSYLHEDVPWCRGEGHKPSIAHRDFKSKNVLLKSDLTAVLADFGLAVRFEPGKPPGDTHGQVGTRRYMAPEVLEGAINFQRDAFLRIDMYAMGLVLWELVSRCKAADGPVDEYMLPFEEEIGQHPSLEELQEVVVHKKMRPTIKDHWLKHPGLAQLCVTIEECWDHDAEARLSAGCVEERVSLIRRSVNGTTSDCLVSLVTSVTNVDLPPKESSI
Protocol: as §1, §2

BMP6 = test: Cell assay HTRF BMP6 (Table 15); format: cell-based

| Structure (SMILES) | IC50 (BMPR2) [nM] | IC50 (TGFβR2) [nM] | IC50 (ACVR2B) [nM] | IC50 (BMP6) [nM] |
| --- | --- | --- | --- | --- |
| Cc1cc(-c2cnn3cc(N4CCC(N5CCN(C)CC5)CC4)cnc23)c2ccccc2n1 [Compound 8] | > 10000 | 191 | 745 | 270 |
| c1ccc2c(-c3cnn4cc(-c5ccc(N6CCNCC6)cc5)cnc34)ccnc2c1 [TRND00262637-13] | > 10000 | 8.06 | 20 | 69 |
